Tests used:
HCT116 cells [1] = assay: Apoptosis, Muse Caspase-3/7 kit with 7-AAD, flow cytometry; assay type: cell-based, human
Procedure: Apoptosis in the colorectal HCT116 cancer cell line was evaluated in triplicate, using the Muse^TM Caspase-3/7 kit, Cat No. MCH100108 (Merck Millipore, Burlington, MA, USA). Briefly, cells were seeded in cell culture flasks at a density of 1 × 10^6 cells and exposed to 4.5 Bq of (2 Gy) and 9.0 Bq […] (4 Gy) of ^225Ac-iPSMA-RGD. Untreated cells were used as the control group and the positive control was prepared through nutrient starvation for 24 h. First, cells were trypsinized and suspended in 50 µL of 1X Assay Buffer BA (1 × 10^6 cells/mL). Then, 5 µL of Caspase-3/7 reagent working solution was added at 37 °C with 5% of CO2 for 30 min. After incubation, 150 µL of Caspase 7-AAD working solution was added to each tube. Finally, tubes were incubated for 5 min, protected from light, and fluorescent intensities were examined by flow cytometry using a Muse Cell Analyzer (Merck Millipore, Burlington, MA, USA) and were conducted in triplicate).

HCT116 cells [2] = assay: Reactive oxygen species, Muse Oxidative Stress kit; assay type: cell-based, human; details: for M1 (ROS plot gate) / M2 (ROS plot gate): representative plot
Procedure: Reactive oxygen species (ROS) were detected with the Muse™ Oxidative Stress kit, (Merck Millipore, Burlington, MA, USA) by measuring the produced intracellular superoxide radicals through dihydroethidium fluorescence. H2O2 (40 nM) was used as the positive control. Briefly, cells were seeded in cell culture flasks at a density of 1 × 10^6 cells and exposed to 4.5 Bq (2 Gy) and 9 Bq (4 Gy) of ^225Ac-iPSMA-RGD. Untreated cells were used as the control group. First, cells were trypsinized and suspended in 10 μL of 1X Assay Buffer. Then 190 μL of the oxidative stress reagent working solution was added to each cell suspension. The suspension was then gently vortexed and incubated at 37 °C with 5% CO2 for 30 min. Fluorescent intensities were examined by flow cytometry using a Muse Cell Analyzer (Merck Millipore, Burlington, MA, USA) and were performed in triplicate. Statistical analysis was performed with two-way ANOVA followed by Tukey’s multiple comparisons test using GraphPad Prism 5.0 Software. Data are shown as mean ± SEM. A p < 0.05 was considered statistically significant.

HCT116 tumors = assay: Tumor size progression after treatment; assay type: in vivo, mice; details: 37 kBq
Procedure: A second group of mice was inoculated subcutaneously with 1 × 10^6 HCT116 cells. After the mice developed a tumor (0.220 ± 0.030 g), they were treated with 3.7 kBq (50 µL) of ^225Ac-iPSMA-RGD (n = 3) via tail vein injection. Animals were necropsied on day 11 post-treatment, as described above.

in vivo = assay: in vivo
Procedure: (§1) All animal procedures followed the Ethical Regulations for the Handling of Laboratory Animals (NOM-062-ZOO-1999) and the requirements of the Institutional Animal Care and Use Committee, according to an approved protocol (CICUAL-08-2018-2021). […] Mice were injected with 3.7 kBq (50 µL) of ^225Ac-iPSMA-RGD and necropsied at 1, 3, 24, 72, and 96 h (n = 3). The liver, heart, kidney, pancreas, lung, spleen, small intestine, and stomach were measured using the Francium-221 photopeak (218 keV) in a hyperpure germanium gamma spectrometer (Ortec, Atlanta, GA, USA). Results were recorded as a percentage of injected dose (%ID) per organ. Blood and bone samples were also dissected, and the associated activity was recorded as %ID/g. A second group of mice was inoculated subcutaneously with 1 × 10^6 HCT116 cells. […] Animals were necropsied on day 11 post-treatment, as described above. Radioisotopic/X-ray ex vivo images of the source organs and tumor were obtained in a preclinical imaging system (Bruker, XTREME, Billerica, MA, USA).

[3] = tested on: HCT116 colorectal cancer cells; assay: Cellular uptake and internalization, with blocked receptor assay; assay type: cell-based, human
Procedure: The ^225Ac-iPSMA-RGD uptake was performed on HCT116, C6 and PC3 cell lines, which were selected based on their variable PSMA and RGD expression according to previous research by our group and others. Each cell line was diluted to 1 × 10^6 cells with 1 mL of PBS in tubes and incubated at 37 °C with 30 μL of ^225Ac-iPSMA-RGD (20 μL, 70 Bq) for 0.5 h, 1 h and 3 h (n = 6). At each time point, the tubes were centrifuged at 3000 rpm for 5 min and rinsed twice with PBS. The measured activity in a NaI(Tl) well-type detector in the pellet, represents the uptake and internalization. To remove the ^225Ac-iPSMA-RGD at the cell membrane level, 1 mL of 0.2 M CH3COOH /0.5 M NaCl was added and the pellet was resuspended. The tubes were then centrifuged and washed with PBS twice (this activity is considered internalization).

[4] = HCT116 tumor-bearing mice, 11 days after administration (37 kBq)
Procedure: as §1

Compound: N=C(N)NCCC[C@@H]1NC(=O)[C@H](CCCCNC(=O)CCCN2C(=O)CC(SC[C@H](NC(=O)c3ccc(NNC(=S)Nc4ccc(CC5CN(CC(=O)O)CCN(CC(=O)O)CCN(CC(=O)O)CCN(CC(=O)O)CCN(CC(=O)O)CCN5CC(=O)O)cc4)nc3)C(=O)N[C@@H](Cc3ccc4ccccc4c3)C(=O)NCCCC[C@H](NC(=O)N[C@@H](CCC(=O)O)C(=O)O)C(=O)O)C2=O)NC(=O)[C@@H](Cc2ccccc2)NC(=O)[C@H](CC(=O)O)NC(=O)CNC1=O (some centres unmarked) [^225Ac-iPSMA-RGD, ^225Ac-HEHA-HYNIC-iPSMA-RGD, metal not drawn]
- Increase in apoptotic/dead cells (HCT116 cells [1]; HCT116, 2 Gy): approximately 24.6%
- Increase in apoptotic/dead cells (HCT116 cells [1]; HCT116, 4 Gy): ~31.2%
- Increase of HCT116 cells with oxidative stress (HCT116 cells [2]; 4 Gy): approximately 30%
- M1 (ROS plot gate) (HCT116 cells [2]; HCT116, 2 Gy): 90.14%
- M2 (ROS plot gate) (HCT116 cells [2]; HCT116, 2 Gy): 9.82%
- M1 (ROS plot gate) (HCT116 cells [2]; HCT116, 4 Gy): 59.30%
- M2 (ROS plot gate) (HCT116 cells [2]; HCT116, 4 Gy): 40.52%
- Tumor size progression compared to control group (untreated mice) (HCT116 tumors; HCT116 tumor-bearing mice): significantly lower (p < 0.05)
- Tumor size compared to ^225Ac-RGD and ^225Ac-PSMA groups (HCT116 tumors; eleven days after administration): significantly lower (p < 0.05)
- Biodistribution pattern (in vivo; healthy mice): rapid blood clearance with hepatobiliary and renal elimination and no accumulation in other tissue
- tissue uptake (in vivo; male, Nu/Nu, mouse, bone, 3.7 kBq, total radioactivity): 0.5 ± 0.3 %ID/g
- Uptake and internalization, blocked vs unblocked cell receptors ([3]; HCT116 cells, blocking with unlabeled 1 mM iPSMA, RGD and iPSMA-RGD): statistically significant difference between blocked and unblocked cell receptors
- Radiopharmaceutical uptake in colorectal cancer cells compared to C6 and PC3 cells ([3]; HCT116 vs C6 and PC3 cells): significantly higher
- Tissue retention in ex-vivo radioisotopic imaging [4]: the tissue accumulating the radiotracer for the longest time is the tumor

Source: paper PMC10705946, “^225Ac-iPSMA-RGD for Alpha-Therapy Dual Targeting of Stromal/Tumor Cell PSMA and Integrins” (International Journal of Molecular Sciences, 2023)
